Values of other authors as cited in US20240368063A1, “PREPARATION METHOD, IN[…], AND SYNTHESIS METHOD FOR A CLASS OF ANTHRACENE-DERIVED TOXINS IN ORGANIC CHEMISTRY” (WUYAN PHARMACEUTICAL TECHNOLOGY (SHANGHAI) CO., LTD, priority 2022, published 2024).

Assays:
topoisomerase II = conditions: at a concentration of 100 μM
human tumor cell lines = conditions: various tumor cell lines, including cells resistant to anthracyclines

COc1cccc2c1C(=O)c1c(O)c3c(c(O)c1C2=O)C[C@@](O)(C(=O)CO)C[C@@H]3O[C@H]1C[C@H]2[C@H](O[C@@H]3[C@@H](OC)OCCN32)[C@H](C)O1 [PNU-159682]
inhibition of the activity of topoisomerase II (topoisomerase II): weakly inhibits | cytotoxicity compared to anthracyclines (human tumor cell lines): three orders of magnitude higher cytotoxicity
